Experimental data from patent publication US8153821B2, “Compounds” (priority 2008, dated 2012).

Tests used:
CYP3A4 = CYP3A4 (Homo sapiens, UniProt P08684); assay type: in vitro ADME
[1] = human
From the text: Therefore any variation of (R)-3-((E)-2-(pyrrolidin-3-yl)vinyl)-5-(tetrahydropyran-4-yloxy)pyridine or a salt thereof metabolism in human due to CYP polymorphism is expected to be less than 2 fold due to the significant renal clearance and low hepatic clearance.

normal rats = assay: Novel object recognition (NOR); assay type: in vivo, rat; conditions: for NOR duration of statistically significant effect after dosing: dose 0.004 μM/kg (0.004 μmol/kg oral), FIG. 2
Description: Memory was assessed by using a three-trial novel object recognition test (Luine et al., Pharm. Biochem. Behav. 74, 213-220 (2002)). On the first day (exploratory trial), rats were allowed to explore an open arena (44.5×44.5×30.5 cm) for 6 min. On the second day (acquisition trial), rats were allowed to explore the same arena in the presence of two identical objects (both object A) for 3 min. On the third day (retention or recall trial), performance was evaluated by allowing the same animal to re-explore the arena for 3 min in the presence of two different objects: the familiar object A and a novel object B. An inter-trial interval of 24 h was imposed between the three NOR trials. Recognition memory was assessed by comparing the time spent exploring a novel (object B) versus a familiar (object A) object during the recall trial. Recognition index was assessed for each animal and expressed as a ratio ((time B/time A+time B)×100).
(R)-3-((E)-2-(Pyrrolidin-3-yl)vinyl)-5-(tetrahydropyran-4-yloxy)pyridine or a salt thereof improved long-term visual episodic/declarative memory as assessed by novel object recognition (NOR) task following oral dosing in normal rats. […] In the two “recall only” sessions; subset of animals were orally dosed with water on day 1 (i.e., exploratory session) and day 2 (i.e., acquisition session) and then orally dosed either with 1.1 μmol/kg (R)-3-((E)-2-(pyrrolidin-3-yl)vinyl)-5-(tetrahydropyran-4-yloxy)pyridine or a salt thereof (left panel) or 0.04 μmol/kg (right panel) on day 3 (i.e., recall session). […] In the Figure, the dashed line at 65% denotes subjective criteria for biological cognitive enhancing activity. *P<0.05.
(R)-3-((E)-2-(Pyrrolidin-3-yl)vinyl)-5-(tetrahydropyran-4-yloxy)pyridine or a salt thereof was evaluated for its duration of effect in the NOR task in normal rats. […] In the Figure, the dashed line at 65% denotes subjective criteria for biological cognitive enhancing activity (*P<0.05).

CYP2B6 = CYP2B6 (Homo sapiens, UniProt P20813); assay type: in vitro ADME
[2] = test system: neuronal nicotinic receptors (α-BnTx insensitive); assay: Multiple receptor screening assay, nicotinic receptor; assay type: binding; conditions: single concentration of 10 μM
Description: (R)-3-((E)-2-(Pyrrolidin-3-yl)vinyl)-5-(tetrahydropyran-4-yloxy)pyridine or a salt thereof was tested for selectivity against a panel of 65 receptors.

CYP2D6 = CYP2D6 (Homo sapiens, UniProt P10635); assay type: in vitro ADME
Pgp brain pump = Pgp brain pump (Homo sapiens, UniProt P08183); assay type: in vitro ADME; conditions: not told
[3] = target: T1, human native muscle receptors (Homo sapiens, UniProt P02708+P07510+Q07001); assay: Ca flux assay, TE-671 cells; assay type: cell-based
T1 construct: human native muscle-type nicotinic receptors (likely α1β1γδ); endogenous in cells; host or cells: TE-671 (TE671/RD)
From the text: Activation of muscle-type nAChRs was established on the human clonal line TE671/RD, which is derived from an embryonal rhabdomyosarcoma (Stratton et al., Carcinogen 10: 899 (1989)). These cells express receptors that have pharmacological (Lukas, J. Pharmacol. Exp. Ther. 251: 175 (1989)), electrophysiological (Oswald et al., Neurosci. Lett. 96: 207 (1989)), and molecular biological profiles (Luther et al., J. Neurosci. 9: 1082 (1989)) similar to the muscle-type nAChR.
(R)-3-((E)-2-(Pyrrolidin-3-yl)vinyl)-5-(tetrahydropyran-4-yloxy)pyridine or a salt thereof was tested in ganglion and muscle-type nicotinic receptor ion flux assays to examine functional selectivity.

α4β2 = α4β2 (Homo sapiens, UniProt P17787+P43681); assay: Calcium flux assay, SH-EP1/human α4β2 cells; assay type: cell-based; parameters: expressed in transfected cells; host or cells: SH-EP1
From the text: Cellular efficacy: The aim of these studies was to determine functional activity of (R)-3-((E)-2-(pyrrolidin-3-yl)vinyl)-5-(tetrahydropyran-4-yloxy)pyridine or a salt thereof at human recombinant α4β2 receptors.

[4] = assay type: physicochemical
From the text: One aspect of the present invention relates to novel salt forms of (R)-3-((E)-2-(pyrrolidin-3-yl)vinyl)-5-(tetrahydropyran-4-yloxy)pyridine. […] However, the free base may react with both inorganic and organic acids to make acid addition salts that have physical properties that are advantageous for the preparation of pharmaceutical compositions such as crystallinity, water solubility, and stability toward chemical degradation.

CYP2C9 = CYP2C9 (Homo sapiens, UniProt P11712); assay type: in vitro ADME
CYP2C9, sequence (P11712 whole entry): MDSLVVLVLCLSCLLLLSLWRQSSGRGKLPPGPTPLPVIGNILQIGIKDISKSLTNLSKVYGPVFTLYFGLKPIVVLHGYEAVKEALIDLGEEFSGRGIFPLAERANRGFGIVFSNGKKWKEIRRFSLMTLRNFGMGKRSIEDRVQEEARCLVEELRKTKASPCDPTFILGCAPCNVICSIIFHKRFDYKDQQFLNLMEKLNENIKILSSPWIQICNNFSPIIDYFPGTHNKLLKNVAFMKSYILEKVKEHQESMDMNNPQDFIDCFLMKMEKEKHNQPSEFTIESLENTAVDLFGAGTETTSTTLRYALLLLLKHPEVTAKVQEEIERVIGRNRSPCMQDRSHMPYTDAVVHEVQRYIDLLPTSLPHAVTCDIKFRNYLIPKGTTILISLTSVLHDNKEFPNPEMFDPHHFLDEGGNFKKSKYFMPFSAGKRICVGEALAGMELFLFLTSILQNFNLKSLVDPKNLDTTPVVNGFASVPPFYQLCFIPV

α4β2, sequence (P43681 29-627 limits assumed): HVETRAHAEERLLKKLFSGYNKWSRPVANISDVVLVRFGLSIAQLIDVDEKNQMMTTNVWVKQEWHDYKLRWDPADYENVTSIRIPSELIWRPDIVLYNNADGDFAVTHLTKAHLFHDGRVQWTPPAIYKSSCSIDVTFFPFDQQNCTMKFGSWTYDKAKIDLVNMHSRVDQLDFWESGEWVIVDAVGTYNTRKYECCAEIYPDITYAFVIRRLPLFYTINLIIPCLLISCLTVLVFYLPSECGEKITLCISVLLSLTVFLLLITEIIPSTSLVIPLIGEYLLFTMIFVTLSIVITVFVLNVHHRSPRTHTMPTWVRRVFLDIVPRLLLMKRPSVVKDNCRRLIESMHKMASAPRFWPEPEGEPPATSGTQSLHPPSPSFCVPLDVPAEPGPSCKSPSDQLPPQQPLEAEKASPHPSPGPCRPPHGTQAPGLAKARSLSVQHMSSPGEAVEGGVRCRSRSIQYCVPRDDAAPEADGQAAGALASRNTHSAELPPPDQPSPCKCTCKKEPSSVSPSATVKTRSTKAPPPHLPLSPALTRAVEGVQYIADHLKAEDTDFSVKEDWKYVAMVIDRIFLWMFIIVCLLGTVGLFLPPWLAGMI
α4β2, sequence (P17787 26-502): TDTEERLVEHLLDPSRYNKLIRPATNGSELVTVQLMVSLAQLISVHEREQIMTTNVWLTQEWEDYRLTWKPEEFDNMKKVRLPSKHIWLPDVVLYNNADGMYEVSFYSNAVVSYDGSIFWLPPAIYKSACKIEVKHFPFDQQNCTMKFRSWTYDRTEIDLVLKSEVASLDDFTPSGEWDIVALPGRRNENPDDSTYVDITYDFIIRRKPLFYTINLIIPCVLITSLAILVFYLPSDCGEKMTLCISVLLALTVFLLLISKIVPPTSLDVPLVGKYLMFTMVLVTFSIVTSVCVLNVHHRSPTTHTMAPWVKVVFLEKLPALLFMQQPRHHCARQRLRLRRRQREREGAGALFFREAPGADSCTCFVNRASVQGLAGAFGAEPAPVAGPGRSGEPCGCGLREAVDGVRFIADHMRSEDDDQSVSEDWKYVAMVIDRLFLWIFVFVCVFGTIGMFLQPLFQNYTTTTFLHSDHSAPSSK
T1 sequence (P02708 21-457): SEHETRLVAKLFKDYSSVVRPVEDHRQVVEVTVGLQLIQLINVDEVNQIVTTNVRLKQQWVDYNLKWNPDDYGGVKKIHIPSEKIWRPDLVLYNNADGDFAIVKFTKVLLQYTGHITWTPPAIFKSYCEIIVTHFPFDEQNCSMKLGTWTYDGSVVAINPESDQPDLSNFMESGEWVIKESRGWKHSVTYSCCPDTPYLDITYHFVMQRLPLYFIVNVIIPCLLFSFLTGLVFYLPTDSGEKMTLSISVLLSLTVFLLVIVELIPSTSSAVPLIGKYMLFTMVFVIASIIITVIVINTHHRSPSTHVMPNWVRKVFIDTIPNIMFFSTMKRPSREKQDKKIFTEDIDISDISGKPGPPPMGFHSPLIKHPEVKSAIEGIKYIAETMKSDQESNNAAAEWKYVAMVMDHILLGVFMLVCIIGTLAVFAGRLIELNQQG
T1 sequence (P11230 24-501 partner): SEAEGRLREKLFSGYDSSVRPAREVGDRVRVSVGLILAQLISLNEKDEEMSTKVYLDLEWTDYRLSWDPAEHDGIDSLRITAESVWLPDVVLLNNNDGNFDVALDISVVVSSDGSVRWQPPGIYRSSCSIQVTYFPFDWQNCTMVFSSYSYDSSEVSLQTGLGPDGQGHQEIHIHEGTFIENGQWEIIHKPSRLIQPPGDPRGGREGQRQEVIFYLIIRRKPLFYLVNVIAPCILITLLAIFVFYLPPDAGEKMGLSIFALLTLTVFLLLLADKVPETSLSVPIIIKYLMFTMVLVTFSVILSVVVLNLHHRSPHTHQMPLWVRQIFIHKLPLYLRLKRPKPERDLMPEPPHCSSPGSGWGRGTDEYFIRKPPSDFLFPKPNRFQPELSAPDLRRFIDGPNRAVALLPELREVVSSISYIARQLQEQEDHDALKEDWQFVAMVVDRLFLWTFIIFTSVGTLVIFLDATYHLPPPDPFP
T1 sequence (P07510 23-517): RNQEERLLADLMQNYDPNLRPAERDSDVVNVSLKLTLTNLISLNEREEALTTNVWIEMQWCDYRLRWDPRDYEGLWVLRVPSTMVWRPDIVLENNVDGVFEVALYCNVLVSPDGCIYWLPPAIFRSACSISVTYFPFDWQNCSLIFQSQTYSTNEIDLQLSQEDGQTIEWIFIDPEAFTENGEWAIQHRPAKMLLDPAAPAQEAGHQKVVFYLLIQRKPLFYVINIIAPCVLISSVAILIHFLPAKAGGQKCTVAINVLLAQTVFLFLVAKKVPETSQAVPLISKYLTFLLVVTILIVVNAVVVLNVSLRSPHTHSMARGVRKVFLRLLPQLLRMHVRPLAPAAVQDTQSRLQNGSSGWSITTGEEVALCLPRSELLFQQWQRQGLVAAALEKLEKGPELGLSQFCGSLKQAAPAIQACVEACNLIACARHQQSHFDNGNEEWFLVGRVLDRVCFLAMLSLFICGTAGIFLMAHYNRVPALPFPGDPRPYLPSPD
T1 sequence (Q07001 22-517): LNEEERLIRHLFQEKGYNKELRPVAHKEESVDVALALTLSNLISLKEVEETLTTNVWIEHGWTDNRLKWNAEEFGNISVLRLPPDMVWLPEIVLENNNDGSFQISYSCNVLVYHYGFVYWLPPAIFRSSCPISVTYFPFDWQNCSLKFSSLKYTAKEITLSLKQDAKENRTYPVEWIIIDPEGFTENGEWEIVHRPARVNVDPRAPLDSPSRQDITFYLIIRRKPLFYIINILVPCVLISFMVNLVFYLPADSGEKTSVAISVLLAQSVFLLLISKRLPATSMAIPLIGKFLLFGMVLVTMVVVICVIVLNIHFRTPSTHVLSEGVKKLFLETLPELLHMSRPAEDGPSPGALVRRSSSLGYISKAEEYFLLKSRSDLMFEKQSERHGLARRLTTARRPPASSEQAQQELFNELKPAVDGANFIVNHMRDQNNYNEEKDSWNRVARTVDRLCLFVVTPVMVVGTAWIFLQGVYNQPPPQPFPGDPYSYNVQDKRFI
CYP2D6, sequence (P10635 whole entry): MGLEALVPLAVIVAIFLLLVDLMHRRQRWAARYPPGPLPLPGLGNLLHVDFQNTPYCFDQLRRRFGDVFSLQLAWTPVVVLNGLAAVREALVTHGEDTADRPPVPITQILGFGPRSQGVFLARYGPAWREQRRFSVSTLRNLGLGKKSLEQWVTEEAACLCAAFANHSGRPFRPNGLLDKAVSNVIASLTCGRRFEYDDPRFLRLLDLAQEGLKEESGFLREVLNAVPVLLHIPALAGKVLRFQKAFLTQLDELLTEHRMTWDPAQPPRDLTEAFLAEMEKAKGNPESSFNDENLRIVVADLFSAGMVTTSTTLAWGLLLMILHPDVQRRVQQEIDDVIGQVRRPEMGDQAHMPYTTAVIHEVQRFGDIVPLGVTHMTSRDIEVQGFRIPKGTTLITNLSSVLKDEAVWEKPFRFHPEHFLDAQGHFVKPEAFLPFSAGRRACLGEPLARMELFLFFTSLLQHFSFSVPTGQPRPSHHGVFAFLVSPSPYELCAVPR
CYP2B6, sequence (P20813 whole entry): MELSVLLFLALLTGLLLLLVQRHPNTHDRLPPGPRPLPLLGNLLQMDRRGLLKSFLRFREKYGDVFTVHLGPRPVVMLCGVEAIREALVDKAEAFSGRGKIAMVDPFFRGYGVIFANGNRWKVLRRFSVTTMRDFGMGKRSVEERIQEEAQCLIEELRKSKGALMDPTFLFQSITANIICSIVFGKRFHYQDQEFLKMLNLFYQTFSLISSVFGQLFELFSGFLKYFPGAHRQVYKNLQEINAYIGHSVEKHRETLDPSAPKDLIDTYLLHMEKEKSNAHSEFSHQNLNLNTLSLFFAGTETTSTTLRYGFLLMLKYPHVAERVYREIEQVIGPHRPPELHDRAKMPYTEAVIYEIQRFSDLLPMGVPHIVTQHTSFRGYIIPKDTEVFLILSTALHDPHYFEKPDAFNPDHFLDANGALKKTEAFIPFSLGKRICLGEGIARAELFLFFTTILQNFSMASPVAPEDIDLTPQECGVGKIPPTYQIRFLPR
CYP3A4, sequence (P08684 whole entry): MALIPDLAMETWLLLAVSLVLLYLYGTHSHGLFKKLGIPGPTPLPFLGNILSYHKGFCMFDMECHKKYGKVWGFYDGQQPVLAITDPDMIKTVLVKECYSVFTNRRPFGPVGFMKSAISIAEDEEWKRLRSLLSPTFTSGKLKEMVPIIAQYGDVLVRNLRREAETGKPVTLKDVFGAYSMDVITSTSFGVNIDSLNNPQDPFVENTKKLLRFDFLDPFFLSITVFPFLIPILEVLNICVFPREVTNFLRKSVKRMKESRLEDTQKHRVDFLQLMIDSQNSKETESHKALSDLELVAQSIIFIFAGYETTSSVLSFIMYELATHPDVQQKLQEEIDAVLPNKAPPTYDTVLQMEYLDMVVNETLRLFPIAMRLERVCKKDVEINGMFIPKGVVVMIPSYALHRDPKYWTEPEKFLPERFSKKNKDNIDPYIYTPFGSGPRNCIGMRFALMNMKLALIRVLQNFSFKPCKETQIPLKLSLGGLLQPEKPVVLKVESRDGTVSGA

## C(=C\[C@H]1CCNC1)/c1cncc(OC2CCOCC2)c1 [Compound A, (R)-3-((E)-2-(pyrrolidin-3-yl)vinyl)-5-(tetrahydropyran-4-yloxy)pyridine]
CYP3A4
  time-dependent inhibition of CYP3A4: no evidence of time-dependent inhibition
[1]
  renal clearance share of total clearance: more than 50%
Normal rats; 0.004 μmol/kg oral, 0.5 h after dosing
  NOR recognition index: 72±2%
Normal rats; 0.004 μmol/kg oral, 6 h after dosing
  NOR recognition index: 70±3%
Normal rats; 0.004 μmol/kg oral, 8 h after dosing
  NOR recognition index: 70±4%
Normal rats; 0.04 μmol/kg oral, normal rats, 24 h after acquisition trial
  NOR recognition index: 71±2%
Normal rats; 1.1 μmol/kg oral, normal rats, 24 h after acquisition trial
  NOR recognition index: 61±3%
Normal rats; FIG. 1
  NOR lowest dose with statistically significant effect: ≥ 0.004 µM/kg
Normal rats
  NOR duration of statistically significant effect after dosing: ≤ 8 h
Normal rats; listed as (R)-3-((E)-2-(pyrrolidin-3-yl)vinyl)-5-(tetrahydropyran-4-yloxy)pyridine
  NOR duration of statistically significant effect after dosing: up to 8 h
Normal rats; listed as Formula I
  NOR duration of statistically significant effect after dosing: ≤ 8 h
Normal rats; oral, follow-up NOR study, rats
  NOR minimum effect dose (MED): 0.004 µmol/kg
Normal rats; single oral administration on day 3, 1.1 μmol/kg or 0.04 μmol/kg
  NOR recognition index, recall only sessions: significantly above controls
CYP2B6
  time-dependent inhibition of CYP2B6: no evidence of time-dependent inhibition
[2]
  inhibition of binding of labelled ligand: 99%
CYP2D6
  time-dependent inhibition of CYP2D6: no evidence of time-dependent inhibition
Pgp brain pump
  Pgp substrate: substrate for Pgp brain pump
[3]
  EC50: 13 µM
[3]; TE-671 cells
  Human (TE671/RD) muscle Emax (Ca flux): μM, 37%
[3]; TE-671 cells, read-out: Human (TE671/RD) muscle Emax (Ca flux)
  Emax: 37%
α4β2
  EC50: 0.1 µM
α4β2; SH-EP1, read-out: Human recombinant (SH-EP 1) α4β2 Emax (Ca flux)
  Emax: 76%
α4β2; in relation to 10 μM nicotine, 24-h incubation at 29° C.
  Human recombinant (SH-EP 1) α4β2 Emax (Ca flux): μM, 76%
[4]
  water solubility: limited water solubility
CYP2C9
  time-dependent inhibition of CYP2C9: no evidence of time-dependent inhibition
